{"source": "ChEMBL document CHEMBL2157897", "about": "“Meso-tetrakis(p-sulfonatophenyl)N-confused porphyrin tetrasodium salt: a potential sensitizer for photodynamic therapy” (J Med Chem, 2012)", "key": {"MCF7 [1]": {"test_system": "MCF7", "assay": "Photocytotoxicity against human MCF7 cells preincubated for 1 hr prior to illumination measured after 24 hrs post illumination by MTT assay", "format": "functional, cell-based"}, "HeLa [2]": {"test_system": "HeLa", "assay": "Photocytotoxicity against human HeLa cells preincubated for 1 hr prior to illumination measured after 24 hrs post illumination by MTT assay", "format": "functional, cell-based"}, "MDA-MB-231 [3]": {"test_system": "MDA-MB-231", "assay": "Photocytotoxicity against human MDA-MB-231 cells preincubated for 1 hr prior to illumination measured after 24 hrs post illumination by MTT assay", "format": "functional, cell-based"}, "MDA-MB-231 [4]": {"test_system": "MDA-MB-231", "assay": "Ratio of IC50 for human HeLa cells to IC50 for human MDA-MB-231 cells", "format": "functional"}, "MDA-MB-231 [5]": {"test_system": "MDA-MB-231", "assay": "Induction of apoptosis in human MDA-MB-231 cells assessed as chromatin condensation at 6 uM preincubated for 1 hr followed by photoirradiation measured after 24 hrs by Hoechst staining based fluorescence microscopy (reference value: 10.4 +/- 1.5 %)", "format": "functional"}, "MDA-MB-231 [6]": {"test_system": "MDA-MB-231", "assay": "Induction of apoptosis in human MDA-MB-231 cells assessed as decrease in mitochondrial membrane potential at 6 uM preincubated for 1 hr followed by photoirradiation measured after 24 hrs by JC1 staining based fluorescence microscopy (reference value: 12.1 +/- 4.9 %)", "format": "functional", "design": "scale not given: the % may be the effect or the level left"}, "[7]": {"assay": "Photocytotoxicity against human SCC172 cells preincubated for 1 hr prior to illumination measured after 24 hrs post illumination by MTT assay", "format": "functional, cell-based"}, "[8]": {"assay": "Photocytotoxicity against human SCC131 cells preincubated for 1 hr prior to illumination measured after 24 hrs post illumination by MTT assay", "format": "functional, cell-based"}, "HCT-116 [9]": {"test_system": "HCT-116", "assay": "Photocytotoxicity against human HCT116 cells preincubated for 1 hr prior to illumination measured after 24 hrs post illumination by MTT assay", "format": "functional, cell-based"}, "MDA-MB-231 [10]": {"test_system": "MDA-MB-231", "assay": "Cytotoxicity against human MDA-MB-231 cells assessed as cell viability at 10 to 50 uM after 24 hrs by MTT assay in absence of light", "format": "cell-based", "conditions": "mda-mb-231, 24 h"}, "[11]": {"assay": "Cytotoxicity against human SCC131 cells assessed as cell viability at 10 to 50 uM after 24 hrs by MTT assay in absence of light", "format": "cell-based", "conditions": "scc131, 24 h"}, "[12]": {"assay": "Cytotoxicity against human SCC172 cells assessed as cell viability at 10 to 50 uM after 24 hrs by MTT assay in absence of light", "format": "cell-based", "conditions": "scc172, 24 h"}, "MDA-MB-231 [13]": {"test_system": "MDA-MB-231", "assay": "Induction of apoptosis in human MDA-MB-231 cells at 12 uM after 1 hr by annexin V-FITC/propidium iodide staining based flow cytometry in absence of light", "format": "cell-based", "conditions": "mda-mb-231, 1 h"}, "MDA-MB-231 [14]": {"test_system": "MDA-MB-231", "assay": "Induction of apoptosis in human MDA-MB-231 cells assessed as decrease in mitochondrial membrane potential at 12 uM preincubated for 1 hr followed by photoirradiation measured after 24 hrs by JC1 staining based fluorescence microscopy (reference value: 12.1 +/- 4.9 %)", "format": "functional", "design": "scale not given: the % may be the effect or the level left"}, "MDA-MB-231 [15]": {"test_system": "MDA-MB-231", "assay": "Induction of apoptosis in human MDA-MB-231 cells assessed as chromatin condensation preincubated for 1 hr followed by photoirradiation measured after 24 hrs by Hoechst staining based fluorescence microscopy", "format": "functional, cell-based"}, "MIA PaCa-2 [16]": {"test_system": "MIA PaCa-2", "assay": "Photocytotoxicity against human MIAPaCa2 cells preincubated for 1 hr prior to illumination measured after 24 hrs post illumination by MTT assay", "format": "functional, cell-based"}, "MDA-MB-231 [17]": {"test_system": "MDA-MB-231", "assay": "Induction of ROS generation in human MDA-MB-231 cells using CM-H2DCFDA as probe at 12 uM after 24 hrs post photoirradiation by FACS flow cytometry (reference value: 13.7 +/- 2.3 %)", "format": "functional"}, "MDA-MB-231 [18]": {"test_system": "MDA-MB-231", "assay": "Induction of apoptosis in human MDA-MB-231 cells assessed as early apoptotic cells at 6 uM preincubated for 1 hr followed by photoirradiation by annexin V-FITC/propidium iodide staining based flow cytometry (reference value: 3.5 +/- 0.41 %)", "format": "functional"}, "MDA-MB-231 [19]": {"test_system": "MDA-MB-231", "assay": "Induction of apoptosis in human MDA-MB-231 cells assessed as PARP cleavage at 12 uM after 1 hr by immunoblotting in absence of light", "format": "cell-based", "conditions": "mda-mb-231, 1 h"}, "MDA-MB-231 [20]": {"test_system": "MDA-MB-231", "assay": "Induction of apoptosis in human MDA-MB-231 cells assessed as PARP cleavage at 6 and 12 uM preincubated for 1 hr followed by photoirradiation by immunoblotting", "format": "functional, cell-based"}, "MDA-MB-231 [21]": {"test_system": "MDA-MB-231", "assay": "Induction of ROS generation in human MDA-MB-231 cells using CM-H2DCFDA as probe at 6 uM after 24 hrs post photoirradiation by FACS flow cytometry (reference value: 13.7 +/- 2.3 %)", "format": "functional"}, "SiHa [22]": {"test_system": "SiHa", "assay": "Cytotoxicity against human SiHa cells assessed as cell viability at 10 to 50 uM after 24 hrs by MTT assay in absence of light", "format": "cell-based"}, "HCT-116 [23]": {"test_system": "HCT-116", "assay": "Cytotoxicity against human HCT116 cells assessed as cell viability at 10 to 50 uM after 24 hrs by MTT assay in absence of light", "format": "cell-based", "conditions": "hct-116, 24 h"}, "MDA-MB-231 [24]": {"test_system": "MDA-MB-231", "assay": "Induction of apoptosis in human MDA-MB-231 cells assessed as chromatin condensation at 12 uM preincubated for 1 hr followed by photoirradiation measured after 24 hrs by Hoechst staining based fluorescence microscopy (reference value: 10.4 +/- 1.5 %)", "format": "functional"}, "MCF7 [25]": {"test_system": "MCF7", "assay": "Cytotoxicity against human MCF7 cells assessed as cell viability at 10 to 50 uM after 24 hrs by MTT assay in absence of light", "format": "cell-based", "conditions": "mcf7, 24 h"}, "MDA-MB-231 [26]": {"test_system": "MDA-MB-231", "assay": "Induction of ROS generation in human MDA-MB-231 cells using CM-H2DCFDA as probe after 24 hrs post photoirradiation by FACS flow cytometry", "format": "functional, cell-based"}, "HeLa [27]": {"test_system": "HeLa", "assay": "Cytotoxicity against human HeLa cells assessed as cell viability at 10 to 50 uM after 24 hrs by MTT assay in absence of light", "format": "cell-based"}, "MDA-MB-231 [28]": {"test_system": "MDA-MB-231", "assay": "Induction of apoptosis in human MDA-MB-231 cells assessed as early apoptotic cells at 12 uM preincubated for 1 hr followed by photoirradiation by annexin V-FITC/propidium iodide staining based flow cytometry (reference value: 3.5 +/- 0.41 %)", "format": "functional"}, "MIA PaCa-2 [29]": {"test_system": "MIA PaCa-2", "assay": "Cytotoxicity against human MIAPaCa2 cells assessed as cell viability at 10 to 50 uM after 24 hrs by MTT assay in absence of light", "format": "cell-based", "conditions": "mia paca-2, 24 h"}, "SiHa [30]": {"test_system": "SiHa", "assay": "Photocytotoxicity against human SiHa cells preincubated for 1 hr prior to illumination measured after 24 hrs post illumination by MTT assay", "format": "functional, cell-based"}}, "note": "Active and inactive are the calls of the source. The calls are words filed in the database; no cut-off is given here."}
{"smiles": "O=S(=O)([O-])c1ccc(-c2c3cc(c(-c4ccc(S(=O)(=O)[O-])cc4)c4ccc([nH]4)c(-c4ccc(S(=O)(=O)[O-])cc4)c4nc(c(-c5ccc(S(=O)(=O)[O-])cc5)c5ccc2[nH]5)C=C4)N=C3)cc1.[Na+].[Na+].[Na+].[Na+]", "values": [{"measurement": "IC50", "setting": "MCF7 [1]", "result": 12, "unit": "µM"}, {"measurement": "IC50", "setting": "HeLa [2]", "result": 25, "unit": "µM"}, {"measurement": "IC50", "setting": "MDA-MB-231 [3]", "result": 6, "unit": "µM"}, {"measurement": "Ratio IC50", "setting": "MDA-MB-231 [4]", "result": 5}, {"measurement": "Activity", "setting": "MDA-MB-231 [5]", "result": 72, "unit": "%"}, {"measurement": "Activity", "setting": "MDA-MB-231 [6]", "result": 69.7, "unit": "%"}, {"measurement": "IC50", "setting": "[7]", "result": 11, "unit": "µM"}, {"measurement": "IC50", "setting": "[8]", "result": 13, "unit": "µM"}, {"measurement": "IC50", "setting": "HCT-116 [9]", "result": 8, "unit": "µM"}, {"measurement": "Activity", "setting": "MDA-MB-231 [10]", "result": "Non-toxic"}, {"measurement": "Activity", "setting": "[11]", "result": "Non-toxic"}, {"measurement": "Activity", "setting": "[12]", "result": "Non-toxic"}, {"measurement": "Activity", "setting": "MDA-MB-231 [13]", "result": "Non-toxic"}, {"measurement": "Activity", "setting": "MDA-MB-231 [14]", "result": 88.5, "unit": "%"}, {"measurement": "Activity", "setting": "MDA-MB-231 [15]", "result": "Dose-dependent effect"}, {"measurement": "IC50", "setting": "MIA PaCa-2 [16]", "result": 8, "unit": "µM"}, {"measurement": "Activity", "setting": "MDA-MB-231 [17]", "result": 79.5, "unit": "%"}, {"measurement": "Activity", "setting": "MDA-MB-231 [18]", "result": 65.8, "unit": "%"}, {"measurement": "Activity", "setting": "MDA-MB-231 [19]", "result": "Non-toxic"}, {"measurement": "Activity", "setting": "MDA-MB-231 [20]", "result": "Active"}, {"measurement": "Activity", "setting": "MDA-MB-231 [21]", "result": 61.8, "unit": "%"}, {"measurement": "Activity", "setting": "SiHa [22]", "result": "Non-toxic"}, {"measurement": "Activity", "setting": "HCT-116 [23]", "result": "Non-toxic"}, {"measurement": "Activity", "setting": "MDA-MB-231 [24]", "result": 91, "unit": "%"}, {"measurement": "Activity", "setting": "MCF7 [25]", "result": "Non-toxic"}, {"measurement": "Activity", "setting": "MDA-MB-231 [26]", "result": "Dose-dependent effect"}, {"measurement": "Activity", "setting": "HeLa [27]", "result": "Non-toxic"}, {"measurement": "Activity", "setting": "MDA-MB-231 [28]", "result": 83.9, "unit": "%"}, {"measurement": "Activity", "setting": "MIA PaCa-2 [29]", "result": "Non-toxic"}, {"measurement": "IC50", "setting": "SiHa [30]", "result": 20, "unit": "µM"}]}
